Reference: publication PMC11673932, “A Novel Ginsenoside-Transforming α-L-Rhamnosidase from Bifidobacterium: Screening, Characterization and Application” (Biomolecules, 2024)

How the values were obtained:
[1] = system: T1, C118 (GST-C118), alpha-L-rhamnosidase; experiment: product (Rg1) quantified, Michaelis-Menten fit; format: biochemical, Bifidobacterium sp.; details: pH 6.0, 45 °C; Re 0.25-10.0 mg/mL; enzyme 0.62 mg/mL
T1 construct: E. coli BL21(DE3); GH78 subfamily II; EC 3.2.1.40; predicted catalytic residues Glu478, Asp472, also W541, W600, L597, W532
Description: product (Rg1) quantified, Michaelis-Menten fit on C118 (GST-C118), alpha-L-rhamnosidase

BD890 (Bd890, BdRham) = target: T2, BD890 (Bd890, BdRham) (Bifidobacterium dentium, UniProt D2Q797); experiment: conversion of Re to Rg1 in PPT-type ginsenoside mixture; format: biochemical; details: cell lysate, 45 °C, Re 2.25 mg/mL in ginsenoside mixture
T2 construct: gene BDP_0161; GST-tag vector pBT7 (same expression system as C118), E. coli BL21(DE3), used as cell lysate; GH78
T2 sequence (D2Q797 1-890): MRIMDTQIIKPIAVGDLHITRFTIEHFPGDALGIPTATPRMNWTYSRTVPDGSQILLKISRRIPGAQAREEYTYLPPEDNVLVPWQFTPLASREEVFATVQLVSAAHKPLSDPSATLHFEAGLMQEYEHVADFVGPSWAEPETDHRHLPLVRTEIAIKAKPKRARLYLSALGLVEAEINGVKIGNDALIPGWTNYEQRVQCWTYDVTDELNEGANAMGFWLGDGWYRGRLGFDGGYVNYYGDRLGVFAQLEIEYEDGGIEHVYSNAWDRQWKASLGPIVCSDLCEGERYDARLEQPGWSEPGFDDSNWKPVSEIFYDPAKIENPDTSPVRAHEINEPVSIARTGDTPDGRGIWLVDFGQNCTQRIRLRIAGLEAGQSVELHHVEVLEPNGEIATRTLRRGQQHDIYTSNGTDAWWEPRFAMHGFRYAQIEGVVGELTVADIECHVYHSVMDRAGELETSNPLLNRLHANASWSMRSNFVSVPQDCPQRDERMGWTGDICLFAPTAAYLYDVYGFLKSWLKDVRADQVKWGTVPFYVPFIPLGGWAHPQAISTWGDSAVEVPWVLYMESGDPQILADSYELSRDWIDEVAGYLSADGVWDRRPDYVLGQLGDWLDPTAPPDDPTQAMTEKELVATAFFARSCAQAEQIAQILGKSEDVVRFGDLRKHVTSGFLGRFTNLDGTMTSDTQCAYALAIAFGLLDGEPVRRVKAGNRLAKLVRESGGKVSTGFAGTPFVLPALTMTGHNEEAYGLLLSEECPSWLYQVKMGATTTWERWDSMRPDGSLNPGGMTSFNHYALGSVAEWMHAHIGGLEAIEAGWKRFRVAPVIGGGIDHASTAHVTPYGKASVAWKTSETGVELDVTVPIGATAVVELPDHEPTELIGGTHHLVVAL

[2] = system: T1, C118 (GST-C118), alpha-L-rhamnosidase; experiment: p-nitrophenol release, Michaelis-Menten fit; format: biochemical, Bifidobacterium sp.; details: pH 6.0, 45 °C; pNPR 0.1-5.0 mM; enzyme 0.62 mg/mL
Description: p-nitrophenol release, Michaelis-Menten fit on C118 (GST-C118), alpha-L-rhamnosidase

## CC(C)=CCC[C@](C)(O[C@@H]1O[C@H](CO)[C@@H](O)[C@H](O)[C@H]1O)[C@H]1CC[C@]2(C)[C@@H]1[C@H](O)C[C@@H]1[C@@]3(C)CC[C@H](O)C(C)(C)[C@@H]3[C@@H](O[C@@H]3O[C@H](CO)[C@@H](O)[C@H](O)[C@H]3O[C@@H]3O[C@@H](C)[C@H](O)[C@@H](O)[C@H]3O)C[C@]12C [Ginsenoside Re]
[1]
  Km: 544 µM
BD890 (Bd890, BdRham)
  % conversion after 12 h: 54%

## C[C@@H]1O[C@@H](Oc2ccc([N+](=O)[O-])cc2)[C@H](O)[C@H](O)[C@H]1O [p-nitrophenyl-α-L-rhamnopyranoside]
[2]
  Km: 2030 µM
